Laboratory results as given in ChEMBL document CHEMBL1201862, “PubChem BioAssay data set” (2004).
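Following 48 hours of exposure in 96-well plates, responses at five concentrations were used to interpolate endpoints linearly. GI50 is the concentration that inhibits growth by half.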 The source made the active and inactive calls. Rule as the data show it: active = GI50 up to about 1.1 µM and inactive = higher.

Key:
Test in all cases: NCI-60 cell line screen, 48 h
NCI-H226 = test system: NCI-H226
LOX IMVI = test system: LOX IMVI
UACC-62 = test system: UACC-62
NCI-H460 = test system: NCI-H460
RXF 393 = test system: RXF 393
CAKI-1 = test system: CAKI-1
SF-539 = test system: SF-539
NCI-H522 = test system: NCI-H522
HOP-62 = test system: HOP-62
ACHN = test system: ACHN
Malme-3M = test system: Malme-3M
K562 = test system: K562
786-0 = test system: 786-0
SF-268 = test system: SF-268
SK-MEL-5 = test system: SK-MEL-5
DLD-1 = test system: DLD-1
SNB-19 = test system: SNB-19

Row | Compound | GI50 (NCI-H226) | GI50 (LOX IMVI) | GI50 (UACC-62) | GI50 (NCI-H460) | GI50 (RXF 393) | GI50 (CAKI-1) | GI50 (SF-539) | GI50 (NCI-H522) | GI50 (HOP-62) | GI50 (ACHN) | GI50 (Malme-3M) | GI50 (K562) | GI50 (786-0) | GI50 (SF-268) | GI50 (SK-MEL-5) | GI50 (DLD-1) | GI50 (SNB-19)
1 | COc1cc(Nc2nc3cc(C(F)(F)F)ccc3nc2-c2ccccc2)cc(OC)c1OC | > 100 µM (inactive) | > 100 µM (inactive) | 75.2 µM (inactive) | > 100 µM (inactive) | 18.1 µM (inactive) | < 0.01 µM (active) | 54.8 µM (inactive) | 37.8 µM (inactive) | 18.9 µM (inactive) | 65.5 µM (inactive) | > 100 µM (inactive) | > 100 µM (inactive) | 40.7 µM (inactive) | > 100 µM (inactive) | 34.4 µM (inactive) | > 100 µM (inactive) | –
2 | NC(=O)/N=C1\NC(Cc2ccccc2)C(=O)N1Cc1ccccc1 (stereo unspecified) | > 100 µM (inactive) | > 100 µM (inactive) | > 100 µM (inactive) | > 100 µM (inactive) | > 100 µM (inactive) | – | > 100 µM (inactive) | – | > 100 µM (inactive) | 80.4 µM (inactive) | – | > 100 µM (inactive) | > 100 µM (inactive) | > 100 µM (inactive) | > 100 µM (inactive) | > 100 µM (inactive) | > 100 µM (inactive)
3 | Sc1nnc(-c2ccccc2)n1/N=C\c1ccc(-c2ccc(Cl)cc2)o1 | > 100 µM (inactive) | > 100 µM (inactive) | > 100 µM (inactive) | > 100 µM (inactive) | – | – | > 100 µM (inactive) | > 100 µM (inactive) | > 100 µM (inactive) | > 100 µM (inactive) | – | > 100 µM (inactive) | > 100 µM (inactive) | > 100 µM (inactive) | – | > 100 µM (inactive) | > 100 µM (inactive)
4 | O=C(c1ccccc1)c1nnc(C(=O)c2ccccc2)nn1 | > 344 µM (inactive) | 282 µM (inactive) | > 344 µM (inactive) | > 344 µM (inactive) | 151 µM (inactive) | > 344 µM (inactive) | > 344 µM (inactive) | 134 µM (inactive) | > 344 µM (inactive) | > 344 µM (inactive) | > 344 µM (inactive) | 119 µM (inactive) | 179 µM (inactive) | > 344 µM (inactive) | > 344 µM (inactive) | > 344 µM (inactive) | > 344 µM (inactive)
5 | CN(C)CC1CCCC/C1=N/OC(=O)c1ccc(Cl)c(Cl)c1 (stereo unspecified) | > 100 µM (inactive) | > 100 µM (inactive) | > 100 µM (inactive) | > 100 µM (inactive) | > 100 µM (inactive) | > 100 µM (inactive) | > 100 µM (inactive) | > 100 µM (inactive) | > 100 µM (inactive) | > 100 µM (inactive) | > 100 µM (inactive) | > 100 µM (inactive) | > 100 µM (inactive) | > 100 µM (inactive) | > 100 µM (inactive) | > 100 µM (inactive) | –
6 | CCOc1cccc2cccnc12 | > 100 µM (inactive) | > 100 µM (inactive) | > 100 µM (inactive) | > 100 µM (inactive) | > 100 µM (inactive) | – | > 100 µM (inactive) | > 100 µM (inactive) | > 100 µM (inactive) | > 100 µM (inactive) | > 100 µM (inactive) | > 100 µM (inactive) | > 100 µM (inactive) | > 100 µM (inactive) | > 100 µM (inactive) | > 100 µM (inactive) | > 100 µM (inactive)
7 | Nc1ccc2c(c1)CC1c3ccccc3C(C2)c2ccccc21 | – | > 100 µM (inactive) | > 100 µM (inactive) | > 100 µM (inactive) | > 100 µM (inactive) | > 100 µM (inactive) | > 100 µM (inactive) | > 100 µM (inactive) | > 100 µM (inactive) | > 100 µM (inactive) | > 100 µM (inactive) | > 100 µM (inactive) | > 100 µM (inactive) | > 100 µM (inactive) | > 100 µM (inactive) | > 100 µM (inactive) | > 100 µM (inactive)
8 | CCCCCCCCCCCCCCCCc1c(C(=O)OC)[nH]c(=S)[nH]c1=O | – | > 50 µM (inactive) | > 50 µM (inactive) | > 50 µM (inactive) | > 50 µM (inactive) | > 50 µM (inactive) | > 50 µM (inactive) | > 50 µM (inactive) | > 50 µM (inactive) | > 50 µM (inactive) | > 50 µM (inactive) | > 50 µM (inactive) | > 50 µM (inactive) | > 50 µM (inactive) | > 50 µM (inactive) | > 50 µM (inactive) | > 50 µM (inactive)
9 | CC1=NC(C(C)C)C(=O)O1 (stereo unspecified) | > 100 µM (inactive) | – | > 100 µM (inactive) | > 100 µM (inactive) | – | > 100 µM (inactive) | > 100 µM (inactive) | > 100 µM (inactive) | > 100 µM (inactive) | > 100 µM (inactive) | > 100 µM (inactive) | 61.1 µM (inactive) | 58.1 µM (inactive) | 45.1 µM (inactive) | > 100 µM (inactive) | 56.2 µM (inactive) | > 100 µM (inactive)
10 | O=C(O)C(CS)Nc1c2ccccc2[n+]([O-])c2ccccc12 (stereo unspecified) | > 100 µM (inactive) | > 100 µM (inactive) | > 100 µM (inactive) | > 100 µM (inactive) | – | > 100 µM (inactive) | – | 56.9 µM (inactive) | > 100 µM (inactive) | > 100 µM (inactive) | > 100 µM (inactive) | 78.9 µM (inactive) | > 100 µM (inactive) | > 100 µM (inactive) | 76 µM (inactive) | 95.9 µM (inactive) | > 100 µM (inactive)
11 | CN(C)CCC(CCN(C)C)=NO | – | – | > 100 µM (inactive) | > 100 µM (inactive) | > 100 µM (inactive) | > 100 µM (inactive) | > 100 µM (inactive) | > 100 µM (inactive) | > 100 µM (inactive) | > 100 µM (inactive) | > 100 µM (inactive) | > 100 µM (inactive) | > 100 µM (inactive) | > 100 µM (inactive) | > 100 µM (inactive) | > 100 µM (inactive) | > 100 µM (inactive)
12 | CSC1=NC=CCN1C | > 100 µM (inactive) | > 100 µM (inactive) | > 100 µM (inactive) | > 100 µM (inactive) | – | > 100 µM (inactive) | – | > 100 µM (inactive) | > 100 µM (inactive) | > 100 µM (inactive) | > 100 µM (inactive) | > 100 µM (inactive) | > 100 µM (inactive) | > 100 µM (inactive) | > 100 µM (inactive) | > 100 µM (inactive) | > 100 µM (inactive)
13 | CCCCCCCCC(=O)CCCCCCCCC(=O)O | 27.2 µM (inactive) | 14.8 µM (inactive) | 20.1 µM (inactive) | 21.3 µM (inactive) | 27.4 µM (inactive) | 34.5 µM (inactive) | 19.7 µM (inactive) | 25.5 µM (inactive) | 26.9 µM (inactive) | 25.3 µM (inactive) | 31.3 µM (inactive) | 18.9 µM (inactive) | 22.9 µM (inactive) | 23.9 µM (inactive) | 15.5 µM (inactive) | 20.1 µM (inactive) | 61.1 µM (inactive)
14 | CCCCCCCC/C=C1\CCC(CN(C)C)C1=O (stereo unspecified) | 22.3 µM (inactive) | 1.92 µM (inactive) | 7.41 µM (inactive) | 10.7 µM (inactive) | – | 3.1 µM (inactive) | 4.82 µM (inactive) | 3.54 µM (inactive) | 12.2 µM (inactive) | 6.61 µM (inactive) | 3.18 µM (inactive) | 2.51 µM (inactive) | 1.53 µM (inactive) | 7.29 µM (inactive) | 8.45 µM (inactive) | 2.16 µM (inactive) | 16.7 µM (inactive)
15 | C=C[C@@]1(C)CCC2(O)C(CCC3C2(C)CCC[C@@]3(C)COC(=O)CC(=O)OC)C1 (stereo partly specified) | 26.2 µM (inactive) | 16.5 µM (inactive) | 17.2 µM (inactive) | 34.3 µM (inactive) | 23.7 µM (inactive) | > 100 µM (inactive) | 19.6 µM (inactive) | 16.3 µM (inactive) | 18.5 µM (inactive) | 40.1 µM (inactive) | 17.7 µM (inactive) | 22.4 µM (inactive) | 35.6 µM (inactive) | 22.5 µM (inactive) | 18 µM (inactive) | 17.4 µM (inactive) | 31.6 µM (inactive)
16 | COc1ccc(C2Oc3cc(OC)c(O)c(C)c3[C@H]2C)cc1 (stereo partly specified) | 26.9 µM (inactive) | 40.5 µM (inactive) | > 100 µM (inactive) | 38.2 µM (inactive) | 23 µM (inactive) | > 100 µM (inactive) | > 100 µM (inactive) | 35.2 µM (inactive) | > 100 µM (inactive) | 54.2 µM (inactive) | > 100 µM (inactive) | 61.2 µM (inactive) | > 100 µM (inactive) | 41.4 µM (inactive) | 62.7 µM (inactive) | > 100 µM (inactive) | 26.9 µM (inactive)
17 | C=C1C(=O)O[C@H]2[C@H]1[C@H](OC(=O)/C(C)=C\C)CC(=C)[C@@H]1[C@H](O)[C@H]3O[C@@]3(C)[C@@]12O [EUPATUNDIN] | – | > 100 µM (inactive) | > 100 µM (inactive) | > 100 µM (inactive) | – | > 100 µM (inactive) | > 100 µM (inactive) | > 100 µM (inactive) | > 100 µM (inactive) | > 100 µM (inactive) | > 100 µM (inactive) | > 100 µM (inactive) | > 100 µM (inactive) | > 100 µM (inactive) | > 100 µM (inactive) | > 100 µM (inactive) | > 100 µM (inactive)
